Laboratory results from US5852018A, “Pharmaceutical piperazine compounds” (Xenova Limited, priority 1994, dated 1998).

Experiments:
AR 1.0 cells [1] = assay: Drug accumulation assay (tritiated daunorubicin) in MDR resistant AR 1.0 cells; assay type: cell-based; settings: Mus musculus, DNR 2 μM; for IC50: 37° C., 1 hr; for Emax: 1 h, 100% = accumulation with 100 μM Verapamil, read-out: MAX accumulation (% 100 μm VRP)
Description: The EMT6 mouse mammary carcinoma cell line and the MDR resistant subline AR 1.0 were cultured in RPMI 1640 medium containing 10% foetal calf serum and 2 mM glutamine at 37° C. in 5% CO2 . Cells were passaged between 1 in 200 and 1 in 2000 in the case of the parental cell line and between 1 in 20 and 1 in 200 in the case of the MDR resistant subline, after trypsinisation (0.25% trypsin, 0.2 gl^-1, EDTA).
AR 1.0 cells were seeded into 96 well opaque culture plates (Canberra Packard). The assay medium contained a mixture of tritiated Daunorubicin (DNR), a cytotoxic agent, and unlabelled DNR (0.25μ Ci/ml; 2 μM). Compounds of formula A were serially diluted in assay medium over a range of concentrations from 100 nM to 100 μM. The cells were incubated at 37° C. for 1 hr before washing and counting of cell associated radioactivity. Each assay included a titration of the known resistance modifying agent Verapamil as positive control. Results were expressed as % maximum accumulation where 100% accumulation is that observed in the presence of 100 μM Verapamil.

AR 1.0 cells [2] = assay: Proliferation assay with and without fixed concentration of doxorubicin (sulphorhodamine B); assay type: cell-based, mouse; settings: for IC50: four days
Text: Compounds of formula A were examined for their ability to potentiate the toxicity of doxorubicin in AR 1.0 cells.

[3] = Mus musculus, 96 h, compound alone, read-out: COMPOUND TOXICITY (IC50)
[4] = cytotoxic agent 0.50 μg/ml, 5760 min, read-out: TOXICITY WITH CYTOTOXIC AGENT (IC 50)

Row | IC50 (AR 1.0 cells [1]) [µM] | Structure (SMILES) | Emax (AR 1.0 cells [1]) [%] | also measured
1 | 10 | CCCCCOc1n/c(=C\c2ccccc2)c(=O)n(C)/c1=C\c1ccccc1 [Compound 1855] |  | IC50 (AR 1.0 cells [2]; [3]): 6 µM; IC50 (AR 1.0 cells [2]; [4]): 0.8 µM
2 | 2 | Cn1c(=O)/c(=C/c2ccccc2)n(Cc2cccc([N+](=O)[O-])c2)c(=O)/c1=C/c1ccccc1 [Compound 1936, (3Z,6Z)-3,6-Dibenzylidene-1-methyl-4-(3-nitrobenzylidene)-2,5-piperazinedione] |  | 
3 | 50 | COC(=O)Cn1c(=O)/c(=C/c2ccccc2)[nH]c(=O)/c1=C/c1ccc(OC)cc1 [Compound 1486, Methyl (3Z,6Z)-3-benzylidene-6-(4-methoxybenzylidene)-2,5-dioxo-1-piperazinylacetate] |  | IC50 (AR 1.0 cells [2]; [3]): 10 µM
4 | 70 | COc1n/c(=C\c2ccccc2)c(=O)n(C)/c1=C\c1ccccc1 [Compound 1771] | 60 | 
5 | 8 | CC=CCn1c(=O)/c(=C/c2ccccc2)n(C)c(=O)/c1=C/c1ccccc1 [Compound 1862, (3Z,6Z)-3,6-Dibenzylidene-1-(but-2-enyl)-4-methyl-2,5-piperazinedione] |  | 
6 | 15 | Cn1c(=O)/c(=C/c2ccccc2)nc(OCC=CCBr)/c1=C/c1ccccc1 [Compound 1859, (3Z,6Z)-3,6-Dibenzylidene-5-(4-bromo-2-butenyloxy)-1-methyl-3,6-dihydro-2-pyrazinone] |  | 
7 | 2 | COc1ccc(/C=c2/c(=O)n(C)/c(=C\c3ccccc3[N+](=O)[O-])c(=O)n2Cc2ccccc2)cc1 [Compound 1879, (3Z,6Z)-1-Benzyl-6-(4-methoxybenzylidene)-4-methyl-3-(2-nitrobenzylidene)-2,5-piperazinedione] |  | 
8 | 11 | Cn1c(=O)/c(=C/c2ccccc2)nc(OCCN2C(=O)c3ccccc3C2=O)/c1=C/c1ccccc1 [Compound 1902, (3Z,6Z)-3,6-Dibenzylidene-1-methyl-5-(2-phthalimidoethoxy)-3,6-dihydro-2-pyrazinone] |  | 
9 | 15 | Cn1c(=O)/c(=C/c2ccccc2)n(CCc2ccccc2)c(=O)/c1=C/c1ccccc1 [Compound 1856, (3Z,6Z)-3,6-Dibenzylidene-4-methyl-1-phenethyl-2,5-piperazinedione] |  | 
10 | 5 | COc1ccc(/C=c2/c(=O)n(Cc3ccccc3)/c(=C\c3c(Cl)cccc3Cl)c(=O)n2C)cc1 [Compound 1878, (3Z,6Z)-1-Benzyl-6-(2,6-dichlorobenzylidene)-3-(4-methoxybenzylidene)-4-methyl-2,5-piperazinedione] |  | 
11 | 4 | Cn1c(=O)/c(=C/c2ccccc2)n(Cc2ccc([N+](=O)[O-])cc2)c(=O)/c1=C/c1ccccc1 [Compound 1939, (3Z,6Z)-3,6-Dibenzylidene-1-methyl-4-(4-nitrobenzylidene)-2,5-piperazinedione] |  | 
12 | 60 | Cn1c(=O)/c(=C/c2ccccc2)n(CC#N)c(=O)/c1=C/c1ccccc1 [Compound 1858, ((3Z,6Z)-3,6-Dibenzylidene-4-methyl-2,5-dioxo-1-piperazinyl)acetonitrile] |  | 
13 | 12 | Cn1c(=O)/c(=C/c2ccccc2)nc(OCc2ccncc2)/c1=C/c1ccccc1 [Compound 1901, (3Z,6Z)-3,6-Dibenzylidene-1-methyl-5-(4-pyridyl)methoxy-3,6-dihydro-2-pyrazinone] |  | 
14 | 10 | CC(C)Cn1c(=O)/c(=C/c2ccccc2)n(C)c(=O)/c1=C/c1ccccc1 [Compound 1857, (3Z,6Z)-3,6-Dibenzylidene-1-isobutyl-4-methyl-2,5-piperazinedione] |  | 
15 | 35 | Cn1c(=O)/c(=C/c2ccccc2)n(CCO)c(=O)/c1=C/c1ccccc1 [Compound 1854, (3Z,6Z)-3,6-Dibenzylidene-1-(2-hydroxyethyl)-4-methyl-2,5-piperazinedione] |  | 
16 | 10 | Cn1c(=O)/c(=C/c2ccccc2)n(CC=CCBr)c(=O)/c1=C/c1ccccc1 [Compound 1860] |  | 
17 | 80 | Cn1c(=O)/c(=C/c2ccccc2)n(CCBr)c(=O)/c1=C/c1ccccc1 [Compound 1803, (3Z,6Z)-3,6-Dibenzylidene-1-(2-bromoethyl)-4-methyl-2,5-piperazinedione] | 50 | 

Second part, the molecule before the results:

Row | Structure (SMILES) | IC50 (AR 1.0 cells [1]) [µM] | Emax (AR 1.0 cells [1]) [%] | also measured
18 | CC(=O)OCCn1c(=O)/c(=C/c2ccccc2)n(C)c(=O)/c1=C/c1ccccc1 [Compound 1817, (3Z,6Z)-1-(2-Acetoxyethyl)-3,6-dibenzylidene-4-methyl-2,5-piperazinedione] | 20 |  | IC50 (AR 1.0 cells [2]; [3]): 20 µM; IC50 (AR 1.0 cells [2]; [4]): 1.5 µM
19 | COc1ccc(/C=c2\nc(OCC3CC3)/c(=C/c3ccccc3)n(C)c2=O)cc1 [Compound 1745, (3Z,6Z)-6-Benzylidene-5-cyclopropylmethoxy-3-(4-methoxybenzylidene)-1-methyl-3,6-dihydro-2-pyrazinone] |  | 35 | 
20 | O=c1/c(=C/c2ccccc2)n(Cc2ccccc2)c(=O)/c(=C/c2ccccc2)n1Cc1ccccc1 [Compound 1906, (3Z,6Z)-1,4-Dibenzyl-3,6-dibenzylidene-2,5-piperazinedione] |  | 34 | 
21 | Cn1c(=O)/c(=C/c2ccccc2)nc(OCCO)/c1=C/c1ccccc1 [Compound 1863, (3Z,6Z)-3,6-Dibenzylidene-5-(2-hydroxyethoxy)-1-methyl-3,6-dihydro-2-pyrazinone] | 10 |  | 
22 | COc1ccc(/C=c2/c(=O)[nH]/c(=C\c3ccccc3)c(=O)n2CC(=O)N(C)C)cc1 [Compound 1614, N,N,-Dimethyl-(3Z,6Z)-3-benzylidene-6-(4-methoxybenzylidene)-2,5-dioxo-1-piperazinylacetamide] |  | 25 | 
23 | Cn1c(=O)/c(=C/c2ccccc2)nc(OCCCCN2C(=O)c3ccccc3C2=O)/c1=C/c1ccccc1 [Compound 1903, (3Z,6Z)-3,6-Dibenzylidene-1-methyl-5-(4-phthalimidobutoxy)-3,6-dihydro-2-pyrazinone] | 9 |  | 
24 | Cn1c(=O)/c(=C/c2ccccc2)nc(OCN2C(=O)c3ccccc3C2=O)/c1=C/c1ccccc1 [Compound 1905, (3Z,6Z)-3,6-Dibenzylidene-1-methyl-5-phthalimidomethoxy-3,6-dihydro-2-pyrazinone] |  | 29 | 
25 | CC(C)COc1n/c(=C\c2ccccc2)c(=O)n(C)/c1=C\c1ccccc1 [Compound 1821, (3Z,6Z)-3,6-Dibenzylidene-5-isobutoxy-1-methyl-3,6-dihydro-2-pyrazinone] |  | 35 | 
26 | COc1ccc(/C=c2\[nH]c(=O)/c(=C/c3ccccc3)n(CC(=O)N3CCCC3)c2=O)cc1 [Compound 1526, N,N-Tetramethylene-(3Z,6Z)-6-benzylidene-3-(4-methoxybenzylidene)-2,5-dioxo-1-piperazinylacetamide] |  | 23.3 | 
27 | CCOc1n/c(=C\c2ccccc2)c(=O)n(C)/c1=C\c1ccccc1 [Compound 1801, (3Z,6Z)-3,6-Dibenzylidene-5-ethoxy-1-methyl-3,6-dihydro-2-pyrazinone] |  | 40 | 
28 | COc1cccc2c1C(=O)c1c(O)c3c(c(O)c1C2=O)C[C@@](O)(C(=O)CO)C[C@@H]3O[C@H]1C[C@H](N)[C@H](O)[C@H](C)O1 [doxorubicin, reference compound] |  |  | toxicity of doxorubicin alone to AR 1.0 cells (AR 1.0 cells [2]; fixed concentration 0.5-1 μM): non-toxic
29 | C=CCCOc1n/c(=C\c2ccccc2)c(=O)n(C)/c1=C\c1ccccc1 [Compound 1826, (3Z,6Z)-3,6-Dibenzylidene-5-(3-butenyloxy)-1-methyl-3,6-dihydro-2-pyrazinone] |  | 40 | 
30 | CC=CCOc1n/c(=C\c2ccccc2)c(=O)n(C)/c1=C\c1ccccc1 [Compound 1861, (3Z,6Z)-3,6-Dibenzylidene-5-(2-butenyloxy)-1-methyl-3,6-dihydro-2-pyrazinone] |  | 46 | 
31 | CC(=O)OCCCCOc1n/c(=C\c2ccccc2)c(=O)n(C)/c1=C\c1ccccc1 [Compound 1904, (3Z,6Z)-5-(4-Acetoxybutoxy)-3,6-dibenzylidene-1-methyl-3,6-dihydro-2-pyrazinone] |  | 47 | 
32 | Cn1c(=O)/c(=C/c2ccccc2)nc(OCCc2ccccc2)/c1=C/c1ccccc1 [Compound 1820, (3Z,6Z)-3,6-Dibenzylidene-1-methyl-5-(2-phenethoxy)-3,6-dihydro-2-pyrazinone] |  | 34 | 
33 | CN(C)CCCOc1n/c(=C\c2ccccc2)c(=O)n(C)/c1=C\c1ccccc1 [Compound 1900, (3Z,6Z)-3,6-Dibenzylidene-5-(3-dimethylaminopropoxy)-1-methyl-3,6-dihydro-2-pyrazinone] | 3 |  | 
34 | Cn1c(=O)/c(=C/c2ccccc2)nc(OCC#N)/c1=C/c1ccccc1 [Compound 1827, (3Z,6Z)-3,6-Dibenzylidene-1-methyl-2-oxo-1,2,3,6-tetrahydro-5-pyrazinyloxyacetonitrile] |  | 35 | 
35 | Cn1c(=O)/c(=C/c2ccccc2)nc(OCC2CCCCC2)/c1=C/c1ccccc1 [Compound 1780] |  | 20 | 
36 | C=CCOc1n/c(=C\c2ccccc2)c(=O)n(C)/c1=C\c1ccccc1 [Compound 1864, (3Z,6Z)-5-Allyloxy-3,6-dibenzylidene-1-methyl-3,6-dihydro-2-pyrazinone] |  | 45 | 
37 | CC(C)Oc1n/c(=C\c2ccccc2)c(=O)n(C)/c1=C\c1ccccc1 [Compound 1819, (3Z,6Z)-3,6-Dibenzylidene-5-isopropoxy-1-methyl-3,6-dihydro-2-pyrazinone] |  | 23 | 
